Experimental data reported in publication PMC9609429 (Pharmaceuticals, 2022).

How the values were obtained:
D2 receptors = test system: D2 receptors; set-up: method as in PMID 34451841; settings: previous studies; cited from earlier work
mice = test system: mice; set-up: method as in PMID 34451841; settings: previous studies; cited from earlier work
α1-adrenoceptor = α1-adrenoceptor radioligand binding assay ([3H]-prazosin, rat cerebral cortex); settings: rat cortex tissue
Description: The α1-, α2-, and β1-adrenoceptor radioligand binding assay was carried out on the rat cerebral cortex. [^3H]-prazosin (19.5 Ci/mmol, α1-adrenoceptor), [^3H]-clonidine (70.5 Ci/mmol, α2-adrenoceptor), and [^3H]-CGP-12177 (48 Ci/mmol, β1-adrenergic receptor) were used as specific ligands. The brains were homogenized using ULTRA-TURRAX homogenizer in 10 mL of an ice-cold 50 mM Tris–HCl buffer (pH 7.6). Homogenates were centrifuged at 20,000× g for 20 min (0–4 °C). Next, the cell pellet was resuspended in the Tris–HCl buffer and centrifuged again. Radioligand binding assays were performed in plates (MultiScreen/Millipore). The final incubation mixture (volume 300 μL) consisted of 240 μL of the tissue suspension, 30 μL of radioligand solution, and 30 μL of the buffer containing 7–8 concentrations of the tested compound. […] The incubation was terminated by rapid filtration through Whatman GF/C filters using a vacuum manifold (Millipore). The filters were then washed twice with the assay buffer and placed in scintillation vials with a liquid scintillation cocktail. Radioactivity was measured in a WALLAC 1409 DSA liquid scintillation counter (Perkin Elmer, Waltham, MA, USA). All the assays were made in duplicates and the inhibitory constants (Ki) were estimated.

normotensive rats = test: Effect on a normal electrocardiogram in rats; format: in vivo; set-up: Rate: unit not given here; settings: rat; for PR / QRS: in ms (unit assumed)
Description: To verify the influence of the tested compound on the normal electrocardiogram (ECG), the experiment was performed. Aspel ASCARD apparatus (standard II lead, with tape speed 50 mm/s and voltage calibration 1 mV = 1 cm) was used for ECG measurements. Normotensive rats were anesthetized with thiopental (75 mg/kg ip). The ECG was recorded prior and 5, 10, 15, 20, 30, 40, 50, 60, and 80 min after intraperitoneal administration of the tested compound. The influence on PQ, QTc interval, QRS complex, and heart rate was evaluated. Bazzett’s formula, QTc = QT/√RR, was used to calculate QTc.

Compound: CCC(CN1CCN(c2ccccc2OC)CC1)NCCCOc1c(C)cccc1C.Cl.Cl (centres unmarked) [HBK-10, N-(3-(2,6-dimethylphenoxy)propyl)-1-(4-(2-methoxyphenyl)piperazin-1-yl)butan-2-amine dihydrochloride]
- properties at D2 receptors (D2 receptors): antagonistic properties
- antidepressant-like effect (mice): antidepressant-like effect
- Adrenergic Receptors—pKi α1 (α1-adrenoceptor): 8.55
- dose influencing normal ECG relative to median effective dose in adrenaline-induced arrhythmia model (normotensive rats): 160 fold
- effect on PR (normotensive rats; 10 mg/kg): no effect
- effect on QRS (normotensive rats; 10 mg/kg): no effect
- effect on QTc (normotensive rats; 10 mg/kg): no effect
- effect on heart rate (normotensive rats; 10 mg/kg): no effect
- QTc (normotensive rats; 10 mg/kg ip, 0 min): 215.3 ± 19.3
- Rate (normotensive rats; 10 mg/kg ip, 0 min): 357.1 ± 22.6
- PR (normotensive rats; 10 mg/kg ip, 0 min): 53.9 ± 2.8
- QRS (normotensive rats; 10 mg/kg ip, 0 min): 22.6 ± 1.8
- QTc (normotensive rats; 10 mg/kg ip, 5 min): 213.2 ± 20.8
- Rate (normotensive rats; 10 mg/kg ip, 5 min): 347.3 ± 25.2
- PR (normotensive rats; 10 mg/kg ip, 5 min): 53.0 ± 3.3
- QRS (normotensive rats; 10 mg/kg ip, 5 min): 21.5 ± 1.4
- QTc (normotensive rats; 10 mg/kg ip, 10 min): 214.4 ± 20.0
- Rate (normotensive rats; 10 mg/kg ip, 10 min): 347.9 ± 29.2
- PR (normotensive rats; 10 mg/kg ip, 10 min): 55.8 ± 2.0
- QRS (normotensive rats; 10 mg/kg ip, 10 min): 23.2 ± 3.6
- QTc (normotensive rats; 10 mg/kg ip, 15 min): 212.4 ± 12.3
- Rate (normotensive rats; 10 mg/kg ip, 15 min): 345.0 ± 32.7
- PR (normotensive rats; 10 mg/kg ip, 15 min): 54.9 ± 2.4
- QRS (normotensive rats; 10 mg/kg ip, 15 min): 23.5 ± 2.6
- QTc (normotensive rats; 10 mg/kg ip, 20 min): 216.7 ± 13.8
- Rate (normotensive rats; 10 mg/kg ip, 20 min): 343.4 ± 33.6
- PR (normotensive rats; 10 mg/kg ip, 20 min): 53.1 ± 4.4
- QRS (normotensive rats; 10 mg/kg ip, 20 min): 23.6 ± 2.9
- QTc (normotensive rats; 10 mg/kg ip, 30 min): 213.7 ± 19.0
- Rate (normotensive rats; 10 mg/kg ip, 30 min): 338.5 ± 26.3
- PR (normotensive rats; 10 mg/kg ip, 30 min): 52.2 ± 4.4
- QRS (normotensive rats; 10 mg/kg ip, 30 min): 22.9 ± 1.6
- QTc (normotensive rats; 10 mg/kg ip, 40 min): 221.4 ± 16.9
- Rate (normotensive rats; 10 mg/kg ip, 40 min): 337.5 ± 25.0
- PR (normotensive rats; 10 mg/kg ip, 40 min): 55.6 ± 2.6
- QRS (normotensive rats; 10 mg/kg ip, 40 min): 24.5 ± 1.8
- QTc (normotensive rats; 10 mg/kg ip, 50 min): 218.8 ± 11.8
- Rate (normotensive rats; 10 mg/kg ip, 50 min): 342.2 ± 25.8
- PR (normotensive rats; 10 mg/kg ip, 50 min): 53.6 ± 4.4
- QRS (normotensive rats; 10 mg/kg ip, 50 min): 23.9 ± 2.5
- QTc (normotensive rats; 10 mg/kg ip, 60 min): 217.4 ± 22.0
- Rate (normotensive rats; 10 mg/kg ip, 60 min): 344.5 ± 28.9
- PR (normotensive rats; 10 mg/kg ip, 60 min): 54.7 ± 3.1
- QRS (normotensive rats; 10 mg/kg ip, 60 min): 23.2 ± 1.9
- QTc (normotensive rats; 10 mg/kg ip, 80 min): 218.3 ± 25.5
- Rate (normotensive rats; 10 mg/kg ip, 80 min): 350.7 ± 28.1
- PR (normotensive rats; 10 mg/kg ip, 80 min): 54.9 ± 4.2
- QRS (normotensive rats; 10 mg/kg ip, 80 min): 22.0 ± 1.4
- effect on PR (normotensive rats; 20 mg/kg): did not affect
- effect on QRS (normotensive rats; 20 mg/kg): did not affect
- QTc (normotensive rats; 20 mg/kg ip, 0 min): 198.4 ± 6.1
- Rate (normotensive rats; 20 mg/kg ip, 0 min): 317.4 ± 26.0
- PR (normotensive rats; 20 mg/kg ip, 0 min): 53.1 ± 2.8
- QRS (normotensive rats; 20 mg/kg ip, 0 min): 21.8 ± 1.7
- QTc (normotensive rats; 20 mg/kg ip, 5 min): 190.9 ± 8.4
- Rate (normotensive rats; 20 mg/kg ip, 5 min): 304.2 ± 32.0
- PR (normotensive rats; 20 mg/kg ip, 5 min): 52.4 ± 3.4
- QRS (normotensive rats; 20 mg/kg ip, 5 min): 20.9 ± 1.2
- QTc (normotensive rats; 20 mg/kg ip, 10 min): 187.8 ± 14.7
- Rate (normotensive rats; 20 mg/kg ip, 10 min): 278.4 ± 41.8
- PR (normotensive rats; 20 mg/kg ip, 10 min): 55.3 ± 1.7
- QRS (normotensive rats; 20 mg/kg ip, 10 min): 22.7 ± 3.4
- QTc (normotensive rats; 20 mg/kg ip, 15 min): 179.4 ± 16.4
- Rate (normotensive rats; 20 mg/kg ip, 15 min): 256.2 ± 52.1
- PR (normotensive rats; 20 mg/kg ip, 15 min): 54.2 ± 2.1
- QRS (normotensive rats; 20 mg/kg ip, 15 min): 22.8 ± 2.2
- QTc (normotensive rats; 20 mg/kg ip, 20 min): 178.9 ± 21.9
- Rate (normotensive rats; 20 mg/kg ip, 20 min): 249.9 ± 53.5
- PR (normotensive rats; 20 mg/kg ip, 20 min): 52.1 ± 4.2
- QRS (normotensive rats; 20 mg/kg ip, 20 min): 22.7 ± 2.5
- QTc (normotensive rats; 20 mg/kg ip, 30 min): 178 ± 21.6 ms
- Rate (normotensive rats; 20 mg/kg ip, 30 min): 246.5 ± 55.6
- PR (normotensive rats; 20 mg/kg ip, 30 min): 51.3 ± 4.4
- QRS (normotensive rats; 20 mg/kg ip, 30 min): 22.0 ± 1.5
- QTc (normotensive rats; 20 mg/kg ip, 40 min): 175.7 ± 20.5
- Rate (normotensive rats; 20 mg/kg ip, 40 min): 242.1 ± 53.5
- PR (normotensive rats; 20 mg/kg ip, 40 min): 54.6 ± 2.4
- QRS (normotensive rats; 20 mg/kg ip, 40 min): 23.6 ± 1.5
- QTc (normotensive rats; 20 mg/kg ip, 50 min): 179.3 ± 20.7
- Rate (normotensive rats; 20 mg/kg ip, 50 min): 239.2 ± 55.4
- PR (normotensive rats; 20 mg/kg ip, 50 min): 52.5 ± 4.6
- QRS (normotensive rats; 20 mg/kg ip, 50 min): 22.9 ± 2.3
- Rate (normotensive rats; 20 mg/kg ip, 60 min): 239.5 ± 56.6
- PR (normotensive rats; 20 mg/kg ip, 60 min): 53.7 ± 3.0
- QRS (normotensive rats; 20 mg/kg ip, 60 min): 22.1 ± 1.7
- QTc (normotensive rats; 20 mg/kg ip, 80 min): 173.0 ± 6.6
- Rate (normotensive rats; 20 mg/kg ip, 80 min): 241.0 ± 64.1
- PR (normotensive rats; 20 mg/kg ip, 80 min): 53.8 ± 4.1
- QRS (normotensive rats; 20 mg/kg ip, 80 min): 21.0 ± 1.3
- decrease of heart rate (normotensive rats; 20 mg/kg, 10 min after administration): 12.3%
- decrease of heart rate (normotensive rats; 20 mg/kg, 15 min after administration): 19.3%
- decrease of QTc (normotensive rats; 20 mg/kg, 15 min post injection): 9.6%
- decrease of heart rate (normotensive rats; 20 mg/kg, 20 min after administration): 21.3%
- decrease of QTc (normotensive rats; 20 mg/kg, 20 min post injection): 9.8%
- decrease of heart rate (normotensive rats; 20 mg/kg, 30 min after administration): 22.3%
- decrease of QTc (normotensive rats; 20 mg/kg, 30 min post injection): 10.5%
- decrease of heart rate (normotensive rats; 20 mg/kg, 40 min after administration): 23.7%
- decrease of QTc (normotensive rats; 20 mg/kg, 40 min post injection): 11.4%
- decrease of heart rate (normotensive rats; 20 mg/kg, 50 min after administration): 24.6%
- decrease of QTc (normotensive rats; 20 mg/kg, 50 min post injection): 9.6%
- decrease of heart rate (normotensive rats; 20 mg/kg, 60 min after administration): 24.5%
- decrease of QTc (normotensive rats; 20 mg/kg, 60 min post injection): 8.3%
- decrease of heart rate (normotensive rats; 20 mg/kg, 80 min after administration): 24.1%
- decrease of QTc (normotensive rats; 20 mg/kg, 80 min post injection): 12.8%
